For 21 compounds, TGI and GI50 results are on record in PubChem BioAssay (NCI).

As usually defined, the TGI is the concentration at which net growth stops. Low readings indicate more potent growth arrest, high ones less potent growth arrest. What is called GI50 is the concentration that inhibits growth by half.

Test systems include A498 renal; A549 NSCLC; CAKI-1 renal; CCRF-CEM leukemia; MDA-MB-435; OVCAR-8 ovarian; RPMI-8226 leukemia; SK-MEL-2 melanoma; U251 CNS; UO-31 renal.
Holding throughout (test): DTP human tumour cell line panel, 48 h

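Test compounds were applied to cells in 96-well plates for 48 hours at 5 doses. Abbreviation: GI50, concentration required for 50% inhibition of growth. TGI denotes the concentration required for complete inhibition of growth.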

Consider `CC(=O)NC1C(OCc2ccccc2)OC(CO)C(O)C1OCC(=O)N[C@@H](C)C(=O)N[C@H](CCC(=O)NCCCNc1ccc([N+](=O)[O-])c2[nH]c3ccccc3c(=O)c12)C(N)=O` (stereo partly drawn), for which the TGI in the assay on A498 renal, with A549 NSCLC, in the assay with CAKI-1 renal, with CCRF-CEM leukemia, in the assay on MDA-MB-435 and in the assay on OVCAR-8 ovarian was greater than 100 µM throughout. Also, the TGI with RPMI-8226 leukemia, in the assay on SK-MEL-2 melanoma, with U251 CNS and with UO-31 renal was greater than 100 µM throughout.

For `COc1ccc2c(c1)CCC/C2=N\NS(=O)(=O)c1c(C)cc(C)cc1C`, the TGI was 77 µM in the assay on A498 renal; greater than 100 µM with A549 NSCLC; greater than 100 µM in the assay with CAKI-1 renal; 63.7 µM in the assay with CCRF-CEM leukemia; greater than 100 µM in the assay with MDA-MB-435; 85.3 µM in the assay on OVCAR-8 ovarian. In addition, the TGI in the assay on SK-MEL-2 melanoma, in the assay on U251 CNS and with UO-31 renal was greater than 100 µM each time.

In the case of `COc1ccccc1NC(=S)N/N=C/c1cccc(C)n1`, the TGI with A498 renal was 69.7 µM; with A549 NSCLC it was 86.9 µM; in the assay with CAKI-1 renal, 74.7 µM; in the assay on CCRF-CEM leukemia it was greater than 100 µM; in the assay on MDA-MB-435, greater than 100 µM; with OVCAR-8 ovarian, greater than 52.3 µM. Further, the TGI in the assay with RPMI-8226 leukemia is greater than 100 µM; with SK-MEL-2 melanoma, greater than 100 µM; in the assay on U251 CNS it was greater than 87.1 µM; in the assay on UO-31 renal it was greater than 39.1 µM.

Regarding `CC(=O)c1sc2[n+](c1C)C(=O)/C(=C\c1ccccc1Cl)S2`, the TGI in the assay on A498 renal came to 74.3 µM; in the assay with A549 NSCLC, 43.6 µM; in the assay on CAKI-1 renal, 41 µM; with CCRF-CEM leukemia it was 91 µM; in the assay on MDA-MB-435, 28.9 µM; with OVCAR-8 ovarian it was 77.5 µM. Besides, the total growth inhibition concentration (TGI) came out at 49.3 µM in the assay with RPMI-8226 leukemia, 55.8 µM in the assay with SK-MEL-2 melanoma, 30.5 µM with U251 CNS and 34 µM with UO-31 renal.

In the case of `O=C(Nc1ccc2ccccc2c1)c1cc2cc(CCl)ccc2oc1=O`, the TGI with A498 renal, in the assay with A549 NSCLC, with CAKI-1 renal, in the assay on CCRF-CEM leukemia, in the assay on MDA-MB-435 and in the assay on OVCAR-8 ovarian was greater than 100 µM in each case. In addition, the TGI in the assay on RPMI-8226 leukemia was greater than 100 µM; in the assay on SK-MEL-2 melanoma, 63.3 µM; in the assay with U251 CNS, greater than 100 µM; in the assay with UO-31 renal, greater than 100 µM.

Take `c1cc2c(cc1C1=NCCN1)c1cc(C3=NCCN3)ccc1n2CC1CCCCC1`: the TGI with A498 renal was greater than 100 µM; in the assay on A549 NSCLC, greater than 100 µM; with CAKI-1 renal, greater than 100 µM; in the assay on CCRF-CEM leukemia it was 50.2 µM; with MDA-MB-435, 50.3 µM; in the assay on OVCAR-8 ovarian, greater than 100 µM. Besides, the TGI with RPMI-8226 leukemia is greater than 100 µM; in the assay with SK-MEL-2 melanoma, 34.6 µM; in the assay on U251 CNS it was 22.9 µM; in the assay with UO-31 renal, greater than 100 µM.

Take `O=c1[nH]c2ccc([N+](=O)[O-])cc2nc1/C=C(\O)c1ccccc1`: the TGI in the assay with A498 renal was 47.4 µM; with A549 NSCLC it was greater than 100 µM; with CAKI-1 renal, 62 µM; in the assay on CCRF-CEM leukemia it was greater than 100 µM; in the assay with MDA-MB-435 it was greater than 100 µM; with OVCAR-8 ovarian it was 49.4 µM. Besides, the total growth inhibition concentration (TGI) in the assay on SK-MEL-2 melanoma is greater than 100 µM; with U251 CNS, 30.3 µM; in the assay on UO-31 renal it was greater than 100 µM.

For `CSCCCNC(=O)[C@H](CSC)NC(=O)c1csc(CCNC(=O)[C@@H](NSc2ccccc2[N+](=O)[O-])C(C)O)n1` (stereo partly drawn), the TGI with A498 renal, with A549 NSCLC, in the assay on CAKI-1 renal, in the assay with CCRF-CEM leukemia, in the assay on MDA-MB-435 and with OVCAR-8 ovarian was greater than 100 µM throughout. Besides, the TGI with SK-MEL-2 melanoma, in the assay on U251 CNS and in the assay on UO-31 renal was greater than 100 µM throughout.

For the compound `CCNC(=S)N/N=C(\C)c1cccc(C)n1`, the TGI with A498 renal is 45.3 µM; with A549 NSCLC it was greater than 100 µM; with CCRF-CEM leukemia, greater than 100 µM; in the assay on MDA-MB-435, greater than 100 µM; with OVCAR-8 ovarian, greater than 100 µM; in the assay with SK-MEL-2 melanoma, greater than 100 µM. The TGI with U251 CNS is 83.2 µM; with UO-31 renal it was greater than 100 µM.

`NC(=O)Oc1ccccc1`: the TGI in the assay on A498 renal, in the assay on A549 NSCLC, in the assay with CCRF-CEM leukemia, with MDA-MB-435, in the assay with OVCAR-8 ovarian and in the assay on U251 CNS was greater than 100 µM each time. In the assay on UO-31 renal, this compound displayed a TGI greater than 100 µM.

Regarding `Cc1ccc(S(=O)(=O)Nn2c(O)c(C#N)c(-c3ccc([N+](=O)[O-])cc3)c(C#N)c2=O)cc1`, the TGI with A498 renal, with A549 NSCLC, in the assay on CAKI-1 renal, with CCRF-CEM leukemia, with MDA-MB-435 and in the assay on OVCAR-8 ovarian was greater than 100 µM each time. Also, the TGI in the assay on SK-MEL-2 melanoma and in the assay on U251 CNS was greater than 100 µM each time.

Consider `FC(F)(F)c1ccc2nc(Sc3ccc4ccccc4c3)cnc2c1`, for which the TGI with A498 renal, in the assay with A549 NSCLC, with CAKI-1 renal, in the assay on CCRF-CEM leukemia, in the assay with MDA-MB-435 and in the assay on OVCAR-8 ovarian was greater than 100 µM throughout. For the same compound, the TGI in the assay on SK-MEL-2 melanoma was 66.3 µM; in the assay with U251 CNS, greater than 100 µM; with UO-31 renal it was greater than 100 µM.

With `COc1ccc(C2=NC(c3ccc(Cl)cc3)C(c3ccc(Cl)cc3)N2C(=O)N2CCNC(=O)C2)c(OC(C)C)c1` (stereo not drawn), the GI50 with A498 renal was 1.89 µM; in the assay with A549 NSCLC, 2.22 µM; in the assay with CAKI-1 renal, 1.8 µM; in the assay on CCRF-CEM leukemia it was 3.85 µM; in the assay on MDA-MB-435, 1.92 µM; in the assay with OVCAR-8 ovarian, 2.46 µM. Besides, the GI50 was 3.58 µM in the assay on RPMI-8226 leukemia, 2.08 µM in the assay with SK-MEL-2 melanoma and 1.84 µM with U251 CNS. The TGI in the assay on A498 renal is 3.55 µM; in the assay on A549 NSCLC, 5.61 µM; in the assay with CAKI-1 renal, 3.22 µM; with CCRF-CEM leukemia, greater than 10 µM; with MDA-MB-435 it was 3.63 µM; in the assay with OVCAR-8 ovarian, 6.14 µM. The TGI with RPMI-8226 leukemia is greater than 10 µM; in the assay on SK-MEL-2 melanoma, 4.15 µM; with U251 CNS, 3.57 µM.

Consider `O=c1cc(N2CCCC2)[nH]c(=O)n1-c1ccc(Cl)cc1`, for which the TGI with A498 renal, in the assay on A549 NSCLC, in the assay with CAKI-1 renal, in the assay on CCRF-CEM leukemia, in the assay with MDA-MB-435 and in the assay with OVCAR-8 ovarian was greater than 100 µM throughout. The concentration for total growth inhibition (TGI) in the assay with RPMI-8226 leukemia, in the assay on SK-MEL-2 melanoma and with U251 CNS was greater than 100 µM each time.

As to `C=CC[C@H](N=C(SC)SC)C(=O)N1C(=O)N(C)[C@@H](C)[C@H]1c1ccccc1`, the TGI in the assay with A498 renal, in the assay on A549 NSCLC, with CAKI-1 renal, with CCRF-CEM leukemia, with MDA-MB-435 and with OVCAR-8 ovarian was greater than 100 µM each time. In addition, the TGI in the assay with SK-MEL-2 melanoma was 91.2 µM; in the assay on U251 CNS, greater than 100 µM; in the assay with UO-31 renal it was greater than 100 µM.

Regarding `CCOC(=O)Cn1c(=O)c(C)cn(COCCO)c1=O`, the TGI with A498 renal, with A549 NSCLC, with CAKI-1 renal, in the assay with MDA-MB-435, in the assay with OVCAR-8 ovarian and with RPMI-8226 leukemia was greater than 100 µM each time. Besides, the TGI in the assay with SK-MEL-2 melanoma, with U251 CNS and with UO-31 renal was greater than 100 µM in each case.

Regarding `CC(C)=NOC(=O)Nc1cccc2c1OCO2`, the TGI in the assay with A498 renal, in the assay on A549 NSCLC, in the assay on CAKI-1 renal, in the assay with MDA-MB-435, with OVCAR-8 ovarian and with RPMI-8226 leukemia was greater than 100 µM in each case. Besides, the TGI in the assay with SK-MEL-2 melanoma, in the assay on U251 CNS and in the assay with UO-31 renal was greater than 100 µM each time.

Turning to `Clc1cc2nnn(C3CCCO3)c2cc1Cl` (stereo not drawn), the TGI with A498 renal, in the assay on A549 NSCLC, with CAKI-1 renal, in the assay with CCRF-CEM leukemia, in the assay with MDA-MB-435 and in the assay with OVCAR-8 ovarian was greater than 100 µM each time. The total growth inhibition concentration (TGI) in the assay with SK-MEL-2 melanoma and in the assay on U251 CNS was greater than 100 µM in each case.

As to `Cc1csc(-n2c(C)nc3cc(Cl)ccc3c2=O)n1`, the TGI with A498 renal, in the assay with A549 NSCLC, with CAKI-1 renal, with CCRF-CEM leukemia, with MDA-MB-435 and in the assay with OVCAR-8 ovarian was greater than 100 µM each time. In addition, the TGI in the assay on SK-MEL-2 melanoma, with U251 CNS and in the assay with UO-31 renal was greater than 100 µM in each case.

For the compound `CCCCCCCCCCCCO[P+](=O)OCCCCCCCCCCCC`, the TGI in the assay on A498 renal, in the assay on A549 NSCLC, with CCRF-CEM leukemia, with MDA-MB-435, with OVCAR-8 ovarian and in the assay on RPMI-8226 leukemia was greater than 100 µM throughout. Moreover, the TGI in the assay with SK-MEL-2 melanoma, with U251 CNS and with UO-31 renal was greater than 100 µM each time.

Turning to `C=C1CC2[C@H](C)C(=O)CCC2(C)C2=C1C1CCC(C(C)CCC(=C)C(C)C(=O)O)C1(C)CC2=O` (stereo partly drawn), the TGI in the assay with A498 renal was greater than 100 µM; with A549 NSCLC, greater than 100 µM; in the assay on CAKI-1 renal, greater than 100 µM; with CCRF-CEM leukemia it was 30.3 µM; with MDA-MB-435, greater than 100 µM; in the assay with OVCAR-8 ovarian, greater than 100 µM. Also, the TGI with SK-MEL-2 melanoma was greater than 100 µM; in the assay with U251 CNS it was greater than 100 µM; in the assay with UO-31 renal, 99.4 µM.
